Measured values as given in the RepoRT retention time repository.

Assay: Thermo Scientific Acclaim RSLC 120 C18, 100 × 2.1 mm, 2.2 µm, 30 °C, 0.2 to 0.48 mL/min, estimated dead time 1.1 min; A: 90% water + 10% methanol + 5 mM ammonium acetate; B: methanol + 5 mM ammonium acetate; gradient (min/%B) 0.1/1 3/39 14/99.9 16/99.9
Conditions: stereoisomer not certain

LC retention time [min] | SMILES
6.64 | NC(=O)N1c2ccccc2C(O)C(O)c2ccccc21 (centres undefined)
6.56 | CC(=O)CC(c1ccccc1)c1c(O)c2ccccc2oc1=O (centres undefined)
4.42 | CCN1CCCC1CNC(=O)c1cc(S(N)(=O)=O)ccc1OC (centres undefined)
8.17 | CCCCC(=O)N(Cc1ccc(-c2ccccc2-c2nn[nH]n2)cc1)C(C(=O)O)C(C)C (centres undefined)
6.46 | CCCN(CCC)S(=O)(=O)c1ccc(C(=O)O)cc1
6.16 | COCCN(C(=O)CS(=O)(=O)O)c1c(C)cccc1C
4.92 | CCC(CC)OC1C=C(C(=O)O)CC(N)C1NC(C)=O (centres undefined)
9.37 | CC(C)CN(CC(O)C(Cc1ccccc1)NC(=O)OC1COC2OCCC12)S(=O)(=O)c1ccc(N)cc1 (centres undefined)
5.61 | CCC1(O)C(=O)OCc2c1cc1n(c2=O)Cc2cc3c(CN(C)C)c(O)ccc3nc2-1 (centres undefined)
6.77 | CC(C(=O)O)c1cccc(C(=O)c2ccccc2)c1 (centres undefined)
7.04 | CCCC(CCC)C(=O)O
10.5 | CCc1cccc2c3c([nH]c12)C(CC)(CC(=O)O)OCC3 (centres undefined)
10.6 | CCOC(=O)NCCOc1ccc(Oc2ccccc2)cc1
5.08 | CCN1CCCC1CNC(=O)c1cc(S(=O)(=O)CC)c(N)cc1OC (centres undefined)
5.86 | CCOc1nc2cccc(C(=O)O)c2n1Cc1ccc(-c2ccccc2-c2nn[nH]n2)cc1
11.4 | CC(C)C1CCC(C(=O)NC(Cc2ccccc2)C(=O)O)CC1 (centres undefined)
10.6 | CCCCCC(=O)c1ccc(O)cc1O
6.97 | COCC(C)N(C(=O)C(=O)O)c1c(C)csc1C (centres undefined)
3.84 | Nc1ncnc2c1ncn2C1OC(CO)C(O)C1O (centres undefined)
10 | COc1cc(C=CC(=O)CC(=O)C=Cc2ccc(O)c(OC)c2)ccc1O

LC retention time [min] | SMILES
6.76 | CCN(CC)C(=O)Nc1ccc(OCC(O)CNC(C)(C)C)c(C(C)=O)c1 (centres undefined)
4.81 | CC[N+]1([O-])CCCC1CNC(=O)c1cc(S(=O)(=O)CC)c(N)cc1OC (centres undefined)
3.68 | CC1(C)SC2C(NC(=O)C(N)c3ccc(O)cc3)C(=O)N2C1C(=O)O (centres undefined)
11.6 | CCCCOc1cc(C(=O)NCCN(CC)CC)c2ccccc2n1
4.42 | C=C1CC23CC1(O)CCC2C12C=CC(O)C(C)(C(=O)O1)C2C3C(=O)O (centres undefined)
8.42 | CC12CCC3c4ccc(O)cc4CCC3C1CC(O)C2=O (centres undefined)
6.01 | CC(C)N(C(=O)CS(=O)(=O)O)c1ccccc1
7.49 | CCCNC(C)C(=O)Nc1ccccc1C (centres undefined)
1.46 | CC(=O)NCCCS(=O)(=O)O
9.74 | CC12CCC3c4cc(O)c(O)cc4CCC3C1CCC2=O (centres undefined)
8.47 | NC(=O)N1c2ccccc2C2OC2c2ccccc21 (centres undefined)
1.35 | CCOC1OC(C(=O)O)C(O)C(O)C1O (centres undefined)
9.91 | CC12CCC(=O)C=C1CCC1C2C(O)CC2(C)C(C(=O)CO)CCC12 (centres undefined)
2.5 | C=CC(=O)NC(C)(C)CS(=O)(=O)O
6.73 | CCCCNc1cc(C(=O)O)cc(S(N)(=O)=O)c1Oc1ccccc1
8.19 | CCc1cccc(C)c1N(C(=O)CS(=O)(=O)O)C(C)COC (centres undefined)
9.89 | CC12CCC3c4ccc(O)c(O)c4CCC3C1CCC2=O (centres undefined)
8.27 | CCC(C)C(=O)OC1CC(O)C=C2C=CC(C)C(CCC(O)CC(O)CC(=O)O)C21 (centres undefined)
11.4 | CCCCCCCCCC(Oc1ccccc1)C(=O)O (centres undefined)

More lines, now with the values behind:

SMILES | LC retention time [min]
c1ccc2[nH]c(-c3cscn3)nc2c1 | 6.52
CCCc1nn(C)c2c(=O)[nH]c(-c3cc(S(=O)(=O)N4CCN(C)CC4)ccc3OCC)nc12 | 9.5
CC(C)(C)c1cc(C(C)(C)C)c(O)c(C(C)(C)C)c1 | 14.6
CNC(=O)C(=NOC)c1ccccc1COc1cc(C)ccc1C | 10.6
COc1ccc(-c2ccccc2)cc1NNC(=O)OC(C)C | 9.82
NS(=O)(=O)Cc1noc2ccccc12 | 5.17
CCC(C)c1cc([N+](=O)[O-])cc([N+](=O)[O-])c1O (centres undefined) | 7.92
CS(=O)(=O)c1ccc(C(=O)C2C(=O)CCCC2=O)c([N+](=O)[O-])c1 | 2.13
CCCCCCCCCc1ccc(O)cc1 | 12.9
CCNC(=O)NC(=O)C(C#N)=NOC | 5.58
O=C(Nc1ccccc1)Nc1cnns1 | 7.12
Cc1ccccc1C(=O)Nc1cccc(OC(C)C)c1 | 9.58
COC(=O)c1ccccc1S(=O)(=O)NC(=O)Nc1nc(C)cc(C)n1 | 5.03
COCc1cnc(C2=NC(C)(C(C)C)C(=O)N2)c(C(=O)O)c1 (centres undefined) | 3.74
CC(C)Nc1nc(NC(C)C)[nH]c(=O)n1 | 8.19
C=C(c1ccc(C(=O)O)cc1)c1cc2c(cc1C)C(C)(C)CCC2(C)C | 14.1
CCCC(C)C1(CC)C(=O)NC(=O)NC1=O (centres undefined) | 7.92
O=C1NC(=O)C2CC=CCC12 (centres undefined) | 4.36
Cc1occc1C(=O)Nc1ccccc1 | 7.54
CC(C)(C)NCC(O)c1ccc(O)c(CO)c1 (centres undefined) | 4.06
CNC(=O)ON=C(C)C(C)S(C)=O (centres undefined) | 3.36
CC(C)(C)c1n[nH]c(=O)n(N)c1=O | 6.67
COC(=O)c1sccc1S(=O)(=O)NC(=O)Nc1nc(C)nc(OC)n1 | 4.52
CCc1ccc(C(=O)NN(C(=O)c2cc(C)cc(C)c2)C(C)(C)C)cc1 | 10.4
C#CC1(O)CCC2C3CCC4=CC(=O)CCC4=C3C=CC21CC (centres undefined) | 9.64

SMILES | LC retention time [min]
Cc1cnc(NC(=O)C2=C(O)c3ccccc3S(=O)(=O)N2C)s1 | 6.41
S=c1[nH]c2ccccc2s1 | 6.58
CC(=O)Nc1ccc(S(=O)(=O)Nc2ncccn2)cc1 | 3.76
CC12CCC3C(CCC4CC(OC5OC(C(=O)O)C(O)C(O)C5O)CCC43C)C1CCC2=O (centres undefined) | 10.2
COc1cc(NS(=O)(=O)c2ccc(NC(C)=O)cc2)nc(OC)n1 | 5.09
CNC(=O)N(C)c1nnc(C(C)(C)C)s1 | 7.21
Nc1nc2c(ncn2CCC(CO)CO)c(=O)[nH]1 | 3.34
CCNc1nc(NC(C)(C)C)[nH]c(=O)n1 | 8.46
CCCCCCC(C)(C)c1ccc(C2CCCC(O)C2)c(O)c1 (centres undefined) | 13.2
CSc1nnc(C(C)(C)C)c(=O)[nH]1 | 8.04
CNC(=O)N(C)c1nc2ccccc2s1 | 8.23
NS(=O)(=O)c1cc(C(=O)O)cc(N2CCCC2)c1Oc1ccccc1 | 6.04
Cc1c(NC=O)c(=O)n(-c2ccccc2)n1C | 4.51
COC(=O)Nc1cccc(OC(=O)Nc2cccc(C)c2)c1 | 8.72
CC(=O)Nc1ccc(S(=O)(=O)Nc2cc(C)on2)cc1 | 4.33
CCCc1nc2c(C)cc(-c3nc4ccccc4n3C)cc2n1Cc1ccc(-c2ccccc2C(=O)O)cc1 | 11.2
CC(C)(C)NCC(O)c1cc(O)cc(O)c1 (centres undefined) | 3.48
CNCC(c1ccc(OC)cc1)C1(O)CCCCC1 (centres undefined) | 6.12
CC[N+]([O-])(CC)CC(=O)Nc1c(C)cccc1C | 6.56
NC(=O)N=C(N)N | 1.73
O=[N+]([O-])c1cc(C2CCCCC2)c(O)c([N+](=O)[O-])c1 | 9.19
CCC1(CC)C(=O)NC(=O)NC1=O | 4.8
COC(=O)c1ccccc1S(=O)(=O)NC(=O)Nc1nc(C)nc(OC)n1 | 4.51
CNCC(O)c1cccc(O)c1 (centres undefined) | 3.24
CSc1nc(N=[N+]=[N-])nc(NC(C)C)n1 | 9.67

SMILES | LC retention time [min]
NS(=O)(=O)c1ccccc1 | 3.92
CNC(=O)Nc1nc2ccccc2s1 | 7.1
COc1ccc(CC(C)NCC(O)c2ccc(O)c(NC=O)c2)cc1 (centres undefined) | 5.91
CC1CC(=O)CC2CCC3C4CCC(O)C4(C)CCC3C12C (centres undefined) | 14.4
CC(C)NCC(O)c1ccc(NS(C)(=O)=O)cc1 (centres undefined) | 3.91
Cc1onc(-c2ccccc2)c1-c1ccc(S(N)(=O)=O)cc1 | 7.46
CC1=C(C(=O)Nc2ccccc2)S(=O)(=O)CCO1 | 5.57
CC(=O)Nc1ccc(S(=O)(=O)Nc2nccs2)cc1 | 4.61
CNC(=N[N+](=O)[O-])NCC1CCOC1 (centres undefined) | 3.59
CCNc1nc(NCC)[nH]c(=O)n1 | 5.56
COC(=O)NC(=S)Nc1ccccc1NC(=S)NC(=O)OC | 6.88
CC(C)c1ccc(NC(=O)N(C)C)cc1 | 8.29
CCNC1CN(CCCOC)S(=O)(=O)c2sc(S(N)(=O)=O)cc21 (centres undefined) | 5.74
CCC1(O)CCC2C3CCC4=CC(=O)CCC4C3CCC21C (centres undefined) | 14
Oc1ccc(C=Cc2cc(O)cc(O)c2)cc1 | 6.82
Cc1ccc(NS(=O)(=O)N(C)C)cc1 | 7.23
Cc1ccc(S(N)(=O)=O)cc1 | 4.79
COc1cc(OC)nc(NC(=O)NS(=O)(=O)c2cc(NC=O)ccc2C(=O)N(C)C)n1 | 5.62
NCC1(CC(=O)O)CCCCC1 | 4.08
CCCCc1c(C)nc(N(C)C)[nH]c1=O | 7.97
O=C1NC(=O)C(c2ccccc2)(c2ccccc2)N1 | 8.26
CC12CCC3C(CC(O)C4=CC(=O)CCC43C)C1CCC2=O (centres undefined) | 6.99
CC1=NNC(=O)N(N=Cc2cccnc2)C1 | 4.13
C=C(C)C1CCC(C)=CC1c1c(O)cc(CCCCC)cc1O (centres undefined) | 13.7
CC1CCCCC1NC(=O)Nc1ccccc1 (centres undefined) | 9.15
